According to patent US9169254B2, “Spiroimidazolone derivative” (Chugai Seiyaku Kabushiki Kaisha, priority 2009, dated 2015):

Each compound was assayed against T1, human PTH1 receptor (Homo sapiens, UniProt Q03431) (assay: In vitro cAMP signal activity in HKRK-B7 cells (LLC-PK1 cells overexpressing the human PTH1 receptor)). Conditions: HKRK-B7 cells; compound at 1×10^−3 M; cAMP produced as percentage of that produced by hPTH(1-34) at 100 nM.
T1 sequence (Q03431 27-593): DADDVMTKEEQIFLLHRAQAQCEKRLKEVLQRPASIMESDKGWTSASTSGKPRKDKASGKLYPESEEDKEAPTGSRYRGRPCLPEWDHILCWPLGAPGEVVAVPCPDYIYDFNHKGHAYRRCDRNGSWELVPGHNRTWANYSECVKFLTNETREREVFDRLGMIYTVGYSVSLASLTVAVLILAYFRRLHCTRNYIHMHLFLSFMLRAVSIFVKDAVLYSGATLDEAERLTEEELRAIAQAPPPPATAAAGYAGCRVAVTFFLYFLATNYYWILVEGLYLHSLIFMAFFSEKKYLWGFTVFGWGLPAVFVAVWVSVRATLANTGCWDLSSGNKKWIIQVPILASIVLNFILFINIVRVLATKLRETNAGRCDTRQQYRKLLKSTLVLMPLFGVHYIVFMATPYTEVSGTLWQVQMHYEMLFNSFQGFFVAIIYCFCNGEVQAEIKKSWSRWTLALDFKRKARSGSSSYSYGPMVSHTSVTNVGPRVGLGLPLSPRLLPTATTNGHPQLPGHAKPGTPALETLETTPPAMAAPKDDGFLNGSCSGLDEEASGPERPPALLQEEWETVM
Format: cell-based

**Q.** For Cc1cc(N(C)C(N)=O)cc(C)c1/C=C/[S@TB4](=O)(=O)N1CCC2(CC1)N=C(CCCCCCCCCCC(F)F)NC2=O [Compound 1125, 1-(4-{(E)-2-[2-(11,11-difluoro-undecyl)-4-oxo-1,3,8-triaza-spiro[4.5]dec-1-ene-8-sulfonyl]-vinyl}-3,5-dimethyl-phenyl)-1-methyl-urea], which “cAMP production activity (%)” value is on record?
**A.** 93%

**Q.** Cc1cc(N2C(=O)CNC2=O)ccc1CCS(=O)(=O)N1CCC2(CC1)N=C([C@H]1CCC[C@@H](C)C1)NC2=O [Compound 950, 3-(3-methyl-4-{2-[2-((1S,3R)-3-methyl-cyclohexyl)-4-oxo-1,3,8-triaza-spiro[4.5]dec-1-ene-8-sulfonyl]-ethyl}-phenyl)-imidazolidine-2,4-dione] was tested. Which “cAMP production activity (%)” value did it give?
**A.** 59%

**Q.** Cc1cc(C(=O)N2CCC(O)(CF)CC2)cc(C)c1/C=C/S(=O)(=O)N1CCC2(CC1)N=C(c1ccc(OC(C)(C)C(F)(F)F)c(C(F)(F)F)c1)NC2=O [Compound 1265, 8-{(E)-2-[4-(4-fluoromethyl-4-hydroxy-piperidine-1-carbonyl)-2,6-dimethyl-phenyl]-ethenesulfonyl}-2-[4-(2,2,2-trifluoro-1,1-dimethyl-ethoxy)-3-trifluoromethyl-phenyl]-1,3,8-triaza-spiro[4.5]dec-1-en-4-one] was tested. Which “cAMP production activity (%)” value did it give?
**A.** 89%

**Q.** CC(=O)N(C)c1ccc(/C=C/S(=O)(=O)N2CCC3(CC2)N=C(c2cccc(OC(F)(F)F)c2)NC3=O)c(C)c1 [Compound 237, N-methyl-N-(3-methyl-4-{(E)-2-[4-oxo-2-(3-trifluoromethoxy-phenyl)-1,3,8-triaza-spiro[4.5]dec-1-ene-8-sulfonyl]-vinyl}-phenyl)-acetamide] was tested. Which “cAMP production activity (%)” value did it give?
**A.** 74%

**Q.** With Cc1cc(N2CCOCC2=O)cc(C)c1CCS(=O)(=O)N1CCC2(CC1)N=C(C1CCC(CCC(F)(F)F)CC1)NC2=O (stereo not shown) [Compound 764, 8-{2-[2,6-dimethyl-4-(3-oxo-morpholin-4-yl)-phenyl]-ethanesulfonyl}-2-[4-(3,3,3-trifluoro-propyl)-cyclohexyl]-1,3,8-triaza-spiro[4.5]dec-1-en-4-one] as the compound, how does the “cAMP production activity (%)” value read?
**A.** 124%

**Q.** Which “cAMP production activity (%)” value does the source give for CC(C)N(CCNC(=O)Cc1ccc(/C=C/S(=O)(=O)N2CCC3(CC2)N=C(C2CCCCC2)NC3=O)cc1)C(C)C [Compound 571, 2-{4-[(E)-2-(2-cyclohexyl-4-oxo-1,3,8-triaza-spiro[4.5]dec-1-ene-8-sulfonyl)-vinyl]-phenyl}-N-(2-diisopropylamino-ethyl)-acetamide] here?
**A.** 39%

**Q.** For Cc1cc(C(=O)N2CCS(=O)(=O)CC2)ccc1CCS(=O)(=O)N1CCC2(CC1)N=C(C1CCCCC1)NC2=O [Compound 841, 2-cyclohexyl-8-{2-[4-(1,1-dioxo-1λ^6-thiomorpholine-4-carbonyl)-2-methyl-phenyl]-ethanesulfonyl}-1,3,8-triaza-spiro[4.5]dec-1-en-4-one], which “cAMP production activity (%)” value is on record?
**A.** 45%

**Q.** For Cc1cc(C(=O)N2CCC(O)(CO)CC2)cc(C)c1/C=C/S(=O)(=O)N1CCC2(CC1)N=C(c1cccc(OC(F)(F)F)c1)NC2=O [Compound 403, 8-{(E)-2-[4-(4-hydroxy-4-hydroxymethyl-piperidine-1-carbonyl)-2,6-dimethyl-phenyl]-ethenesulfonyl}-2-(3-trifluoromethoxy-phenyl)-1,3,8-triaza-spiro[4.5]dec-1-en-4-one], which “cAMP production activity (%)” value is on record?
**A.** 51%

**Q.** How did the “cAMP production activity (%)” value turn out when Cc1cc(N(C)C(N)=O)cc(C)c1CCS(=O)(=O)N1CCC2(CC1)N=C(CCCCCCCCC1(C)COC1)NC2=O [Compound 1031, 1-[3,5-Dimethyl-4-(2-{2-[8-(3-methyl-oxetan-3-yl)-octyl]-4-oxo-1,3,8-triaza-spiro[4.5]dec-1-ene-8-sulfonyl}-ethyl)-phenyl]-1-methyl-urea] was run?
**A.** 111%

**Q.** How did the “cAMP production activity (%)” value turn out when Cc1cc2ccc1CCS(=O)(=O)N1CCC3(CC1)N=C(NC3=O)c1cc(cc(C(F)(F)F)c1)OCC/C=C\CN(C)C2=O [Compound 1408] was run?
**A.** 5.1%
